Source: article PMC10149214 (The Journal of Biological Chemistry, 2023)
Where “and” joins values, the source holds several entries; their conditions need not be identical. Equal entries are not always repeated.

Experiments:
CRAF = tested on: CRAF; parameters: method as in PMID 33355204; conditions: purified CRAF; reaction conditions not provided; cited from earlier work
BRAF^WT = BRAF^WT (Homo sapiens, UniProt P15056); test: TR-FRET kinase inhibition assay (MEK1 activation loop phosphorylation), BRAF^WT dimer
CRAF^WT = CRAF^WT (Homo sapiens, UniProt P04049); test: TR-FRET kinase inhibition assay (MEK1 activation loop phosphorylation), CRAF^WT dimer
ARAF^SSDD = molecular target: T1, ARAF^SSDD (Homo sapiens, UniProt P10398, G300S/Y301D/Y302D); test: TR-FRET kinase inhibition assay (MEK1 activation loop phosphorylation), ARAF^SSDD dimer; conditions: for Hill slope: four-parameter fit, ARAF^SSDD 10 nM, ATP 200 μM
T1 sequence (P10398 274-606 G300S/Y301D/Y302D): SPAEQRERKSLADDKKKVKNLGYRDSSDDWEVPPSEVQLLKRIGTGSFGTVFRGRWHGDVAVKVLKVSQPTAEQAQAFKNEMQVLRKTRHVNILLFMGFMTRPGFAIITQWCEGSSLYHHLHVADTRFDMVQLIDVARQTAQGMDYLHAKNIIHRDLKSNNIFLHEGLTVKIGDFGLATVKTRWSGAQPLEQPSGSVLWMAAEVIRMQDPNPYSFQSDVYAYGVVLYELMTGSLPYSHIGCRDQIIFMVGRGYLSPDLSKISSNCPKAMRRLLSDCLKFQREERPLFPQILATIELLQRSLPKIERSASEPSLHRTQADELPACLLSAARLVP

CRAF^SSDD = CRAF^SSDD (Homo sapiens, UniProt P04049, Y340D/Y341D); test: TR-FRET kinase inhibition assay (MEK1 activation loop phosphorylation), CRAF^SSDD dimer
BRAF^V600E = BRAF^V600E (Homo sapiens, UniProt P15056, V600E); test: TR-FRET kinase inhibition assay (MEK1 activation loop phosphorylation), BRAF^V600E monomer
[1] = parameters: method as in PMID 28082416, PMID 25792358; conditions: cited from earlier work

| IC50 (BRAF^WT) | Ki (BRAF^WT) | Hill slope (BRAF^WT; four-parameter fit, BRAF^WT 1 nM, ATP 200 μM) | Ki (CRAF^WT) | IC50 (CRAF^WT; IC50, CRAF^WT 4 nM, ATP 200 μM, WT MEK1 substrate 250 nM, mean ± SD) | Hill slope (CRAF^WT; four-parameter fit, CRAF^WT 4 nM, ATP 200 μM) | IC50 (ARAF^SSDD) | Ki (ARAF^SSDD) | Hill slope (ARAF^SSDD) | IC50 (CRAF^SSDD) | Ki (CRAF^SSDD) | Hill slope (CRAF^SSDD; four-parameter fit, CRAF^SSDD 1 nM, ATP 200 μM) | IC50 (BRAF^V600E) | Ki (BRAF^V600E) | Hill slope (BRAF^V600E; four-parameter fit, BRAF^V600E 1 nM, ATP 200 μM) | Inhibition of ARAF^SSDD at highest inhibitor concentration (ARAF^SSDD; 10 μM, the highest inhibitor concentration achievable in this assay) | SMILES | IC50 (CRAF) | Brain penetration [1] |
| --- | --- | --- | --- | --- | --- | --- | --- | --- | --- | --- | --- | --- | --- | --- | --- | --- | --- | --- |
| 13.4 ± 0.3 nM | 0.13 ± 0.08 nM | −2.73 ± 0.23 | 0.04 ± 0.03 nM | 3.7 nM and 3.66 nM | −2.57 ± 0.65 | 414 ± 186 nM | 5.71 ± 2.97 nM | −0.78 ± 0.05 | 3.64 ± 0.36 nM | 0.01 ± 0.001 nM | −3.03 ± 0.73 | 49.2 ± 3 nM | 2.04 ± 0.83 nM | −0.96 ± 0.09 | – | Cc1ccc(NC(=O)c2ccnc(C(F)(F)F)c2)cc1-c1cc(OCCO)nc(N2CCOCC2)c1 [Naporafenib, N-(3-(2-(2-Hydroxyethoxy)-6-morpholinopyridin-4-yl)-4-methylphenyl)-2-(trifluoromethyl)isonicotinamide] | 0.07 nM | – |
| – | – | – | – | – | – | > 3000 nM | > 40 nM | −1.12 ± 0.42 | – | – | – | – | – | – | did not completely inhibit | C[C@@H](NC(=O)c1ncnc(N)c1Cl)c1ncc(C(=O)Nc2cc(C(F)(F)F)c(Cl)cn2)s1 [Tovorafenib] | – | brain-penetrant |
